Data from the supplement of paper PMC10307832.

Columns and labels:
Assay in all cases: relative viability (nuclei count vs DMSO), 5 days (fraction); higher = more cells survive
AZD1208 + Navitoclax = compound: N[C@@H]1CCCN(c2c(/C=C3\SC(=O)NC3=O)cccc2-c2ccccc2)C1 [AZD1208] + CC1(C)CCC(c2ccc(Cl)cc2)=C(CN2CCN(c3ccc(C(=O)NS(=O)(=O)c4ccc(N[C@H](CCN5CCOCC5)CSc5ccccc5)c(S(=O)(=O)C(F)(F)F)c4)cc3)CC2)C1 [Navitoclax] (partner 0.5 µM)
Procedure, shortened: (§1)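 A single step with final 0.05% Triton X-100, 1% formaldehyde and 1 ug/ml Hoechst fixed the cells and stained nuclei 5 days after treatment. Lung cancer cell lines in 1536-well plates had been treated by pin tool the day after seeding with one drug alone or a fixed anchor-drug dose plus five library-drug doses (not always all listed) in √10 steps, and nuclei were counted on 4× images. Relative viability is the ratio of nuclei in treated wells to nuclei in vehicle wells, taken as the median of duplicate plates.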

AZD1208 + Luminespib = compound: N[C@@H]1CCCN(c2c(/C=C3\SC(=O)NC3=O)cccc2-c2ccccc2)C1 [AZD1208] + CCNC(=O)c1noc(-c2cc(C(C)C)c(O)cc2O)c1-c1ccc(CN2CCOCC2)cc1 [Luminespib] (partner 0.01 µM)
Procedure, shortened: as §1

AZD1208 + Dasatinib = compound: N[C@@H]1CCCN(c2c(/C=C3\SC(=O)NC3=O)cccc2-c2ccccc2)C1 [AZD1208] + Cc1nc(Nc2ncc(C(=O)Nc3c(C)cccc3Cl)s2)cc(N2CCN(CCO)CC2)n1 [Dasatinib] (partner 0.075 µM)
Procedure, shortened: as §1

AZD1208 + AZD7762 = compound: N[C@@H]1CCCN(c2c(/C=C3\SC(=O)NC3=O)cccc2-c2ccccc2)C1 [AZD1208] + NC(=O)Nc1cc(-c2cccc(F)c2)sc1C(=O)N[C@H]1CCCNC1 [AZD7762] (partner 0.2 µM)
Procedure, shortened: as §1

Row | Cell Line | relative viability (AZD1208 + Navitoclax; first compound 0.08 µM) | relative viability (AZD1208 + Navitoclax; first compound 0.253 µM) | relative viability (AZD1208 + Navitoclax; first compound 0.8 µM) | relative viability (AZD1208 + Navitoclax; first compound 2.53 µM) | relative viability (AZD1208 + Navitoclax; first compound 8 µM) | relative viability (AZD1208 + Luminespib; first compound 0.08 µM) | relative viability (AZD1208 + Luminespib; first compound 0.253 µM) | relative viability (AZD1208 + Luminespib; first compound 0.8 µM) | relative viability (AZD1208 + Luminespib; first compound 2.53 µM) | relative viability (AZD1208 + Luminespib; first compound 8 µM) | relative viability (AZD1208 + Dasatinib; first compound 0.08 µM) | relative viability (AZD1208 + Dasatinib; first compound 0.253 µM) | relative viability (AZD1208 + Dasatinib; first compound 0.8 µM) | relative viability (AZD1208 + Dasatinib; first compound 2.53 µM) | relative viability (AZD1208 + Dasatinib; first compound 8 µM) | relative viability (AZD1208 + AZD7762; first compound 0.08 µM) | relative viability (AZD1208 + AZD7762; first compound 0.253 µM) | relative viability (AZD1208 + AZD7762; first compound 0.8 µM) | relative viability (AZD1208 + AZD7762; first compound 2.53 µM) | relative viability (AZD1208 + AZD7762; first compound 8 µM)
1 | NCI-H1437 | 1.13 | 1.11 | 1.02 | 1.16 | 1.07 | 1.13 | 1.17 | 1.2 | 1.24 | 1.22 | 0.495 | 0.297 | 0.337 | 0.296 | 0.337 | 1.18 | 1.13 | 1.06 | 1.09 | 1.05
2 | NCI-H1651 | 0.879 | 0.929 | 0.858 | 0.887 | 0.774 | 0.902 | 0.977 | 0.848 | 0.795 | 0.568 | 0.406 | 0.461 | 0.38 | 0.319 | 0.307 | 0.458 | 0.54 |  | 0.439 | 0.472
3 | NCI-H1666 | 0.792 | 0.802 | 0.706 | 0.801 | 0.942 | 0.977 | 1.07 | 0.911 | 1 | 1.01 | 0.843 | 0.829 | 0.828 | 0.763 | 0.834 | 0.953 | 0.888 | 0.762 | 0.856 | 0.937
4 | NCI-H1734 | 0.753 | 0.932 | 0.714 | 0.724 | 0.582 | 0.18 | 0.197 | 0.187 | 0.159 | 0.168 | 0.41 | 0.435 | 0.426 | 0.393 | 0.307 | 0.499 | 0.543 | 0.469 | 0.465 | 0.425
5 | NCI-H1755 | 0.991 | 0.989 | 1.02 | 0.952 | 0.786 | 0.357 | 0.282 | 0.494 | 0.565 | 0.269 | 0.422 | 0.407 | 0.345 | 0.339 | 0.209 | 0.509 | 0.577 | 0.455 | 0.446 | 0.448
6 | NCI-H1792 | 0.678 | 0.779 | 0.531 | 0.645 | 0.557 | 0.407 | 0.437 | 0.358 | 0.394 | 0.284 | 0.722 | 0.595 | 0.647 | 0.675 | 0.55 | 0.815 | 0.739 |  | 0.593 | 0.56
7 | NCI-H1793 | 0.336 | 0.47 | 0.354 | 0.469 | 0.364 | 0.181 | 0.17 | 0.14 | 0.176 | 0.152 | 0.333 | 0.347 | 0.358 | 0.427 | 0.298 | 0.599 | 0.611 | 0.403 | 0.482 | 0.401
8 | NCI-H1915 | 0.794 | 0.797 | 0.839 | 0.832 | 0.825 | 0.768 | 0.811 | 0.709 | 0.677 | 0.678 | 0.305 | 0.298 | 0.296 | 0.294 | 0.239 | 0.642 | 0.76 | 0.766 | 0.778 | 0.673
9 | NCI-H1944 | 1.05 | 1.01 | 0.977 | 1.01 | 0.832 | 0.765 | 0.711 | 0.548 | 0.557 | 0.346 | 0.196 | 0.178 | 0.175 | 0.193 | 0.16 | 0.494 | 0.693 | 0.442 | 0.5 | 0.395
10 | NCI-H1975 | 1.19 | 1.05 | 1.14 | 1.01 | 1.09 | 0.235 | 0.296 | 0.2 | 0.228 | 0.18 | 0.388 | 0.363 | 0.36 | 0.361 | 0.381 | 0.746 | 0.784 | 0.691 | 0.746 | 0.642
11 | NCI-H1993 |  | 0.824 | 0.606 | 0.812 | 0.691 | 0.522 | 0.561 | 0.692 | 0.566 | 0.523 | 0.507 | 0.519 | 0.54 | 0.536 | 0.459 | 0.679 | 0.654 | 0.629 | 0.757 | 0.579
12 | NCI-H2085 | 1.02 | 1.29 | 1.13 | 1.14 | 1.02 | 0.439 | 0.388 | 0.427 | 0.461 | 0.381 | 0.27 | 0.217 | 0.306 | 0.218 | 0.262 | 1 | 1.13 | 0.911 | 0.892 | 1.04
13 | NCI-H2087 | 1.05 | 1.07 | 1.03 | 0.91 | 0.836 | 0.166 | 0.145 | 0.14 | 0.141 | 0.171 | 0.763 | 0.824 | 0.641 | 0.573 | 0.715 | 1.29 | 1.45 | 1.35 | 1.46 | 1.32
14 | NCI-H2126 | 0.902 | 0.753 | 0.812 | 0.788 | 0.731 | 0.9 | 0.924 | 0.848 | 0.799 | 0.858 | 0.554 | 0.453 | 0.475 | 0.436 | 0.394 | 1.03 | 1.08 | 1.02 | 0.996 | 0.928
15 | NCI-H2170 | 0.505 | 0.664 | 0.418 | 0.521 | 0.251 | 0.65 | 0.656 | 0.632 | 0.512 | 0.321 | 0.615 | 0.542 | 0.478 | 0.485 | 0.406 | 0.911 | 0.923 | 0.821 | 0.796 | 0.424
16 | NCI-H2347 | 0.917 | 0.94 | 0.685 | 0.794 | 0.716 | 0.416 | 0.625 | 0.415 | 0.371 | 0.306 | 0.306 | 0.339 | 0.339 | 0.321 | 0.257 | 0.835 | 0.747 | 0.72 | 0.764 | 0.781
